US20250302804A1, “RESOMELAGON AND ITS DERIVATIVES FOR THE TREATMENT OF CARDIOVASCULAR DISEASE, HYPERTENSION AND ATHEROSCLEROSIS” (SYNACT PHARMA ApS, priority 2022, published 2025)

Experiments:
macrophages = conditions: cited from earlier work
[1] = test system: early rheumatoid arthritis (RA) patients with active joint disease; assay: Phase IIa placebo-controlled study in early rheumatoid arthritis patients: CDAI; format: in vivo, human; conditions: for CDAI group mean, Baseline / CDAI group mean, Screening / CDAI group mean, Week 4 / CDAI group mean, Week 2 / CDAI group mean, Week 5 / CDAI Difference / CDAI Difference in %: n = 31; for CDAI group mean, Baseline / CDAI group mean, Screening: before treatment; for CDAI group mean, Week 4: end of treatment; for CDAI group mean, Week 2: mid-treatment; for CDAI group mean, Week 5: one week follow-up after last dosage; for CDAI Difference / CDAI Difference in %: week 4 vs baseline
Experimental: (§1) The study population will consist of newly diagnosed subjects with severe active RA (CDAI (Clinical disease activity score)>22) who are to start up-titration with methotrexate (MTX).
The doses used in this Example are calculated based on the specific acetate salt form.
The study population will consist of newly diagnosed subjects with severe active RA (CDAI >22) who are to start up-titration with MTX. A minimum of 90 subjects are expected to complete the study; plus 45 subjects from Bulgaria and/or Moldova for a sub-study. Up to 120 subjects are planned to be enrolled to account for discontinuation rate, and up to 60 subjects for the sub-study.
The CDAI is a clinical composite score for following patients with RA.
Descriptive changes in CDAI where CDAI=SJC (28)+TJC (28)+PGA+IGA; • SJC (28): Swollen 28-Joint Count (shoulders, elbows, wrists, MCPs, PIPs including thumb IP, knees); • TJC (28): Tender 28-Joint Count (shoulders, elbows, wrists, MCPs, PIPs including thumb IP, knees); • PGA: Patient Global Disease Activity (patient's self-assessment of overall RA disease activity on a scale 0-100 where 100 is maximal activity); • IGA: Physician's Global Disease Activity (evaluator's assessment of the subject's overall RA disease activity on a scale 0-100 where 100 is maximal activity)
The CDAI will be scored at screening, baseline, after 2 weeks and 4 weeks treatment, and at the final visit (one week after final dose).

[2] = test system: experimental inflammatory arthritis; conditions: oral; cited from earlier work
melanocytes = conditions: cited from earlier work
[3] = Phase I repeated dose study, peak and trough concentrations at steady conditions; format: in vivo, human; conditions: 200 mg once daily
MC3R = conditions: cited from earlier work
peritonitis = conditions: oral; cited from earlier work
[4] = Phase IIa study in early RA patients: blood pressure and clinically notable vital sign abnormalities; format: in vivo, human; conditions: for MAP Average/Median: MAP = DAP + ⅓(SAP − DAP); for CNA (clinically notable vital sign abnormalities): SAP ≥160, <90, DAP ≥105, <50
Text: as §1
Safety measures (AEs, SAEs, including laboratory abnormalities and vital signs such as blood pressure) will be registered during the whole study duration.

[5] = test system: acute peritonitis induced by zymosan A in mice; assay: Zymosan A-induced acute peritonitis in mice: IL-1β, IL-6 and neutrophil accumulation; format: in vivo; conditions: 1 mg/kg intraperitoneal 30 minutes before zymosan, 12 hours, N=6
Experimental: Acute peritonitis was induced by the injection of 1 mg zymosan A (Sigma-Aldrich) i.p. in 0.5 ml sterile PBS in mice. Twelve hours later the mice were sacrificed by CO2 exposure, and peritoneal cavities were washed with 4 ml ice-cold PBS containing 3 mM EDTA. Cells were stained with Turk's solution (0.01% crystal violet in 3% acetic acid) and counted using a Neubauer hemocytometer or were stained with FITC-conjugated mAb for Ly-6G/Gr1, F4/80, and corresponding isotype controls (eBioscience, Hatfield, U.K.), and subjected to flow-cytometry analysis using a BD FACSCalibur platform (BD Biosciences, Oxford, U.K.). Levels of IL-1B and IL-6 in quick frozen samples were quantified according to the manufacturer's instructions using ELISA Ready-SET-Go! (eBioscience). All animal studies were approved by and performed under the guidelines of the Ethical Committee for the Use of Animals, Barts and The London School of Medicine and Home Office regulations (Guidance on the Operation of Animals, Scientific Procedures Act, 1986). Male (7-8 wk old) C57BL/6J wild-type (WT) mice were purchased from Charles River Laboratories. Test Item A, 1 mg/kg or vehicle treatment were given intraperitoneal 30 minutes before induction of the acute peritonitis. N=6 for in both groups.

MC1R = conditions: cited from earlier work
[6] = 50 mg AP1189 once daily plus MTX
[7] = 100 mg AP1189 once daily plus MTX

NC(N)=N/N=C/C=C/c1cccn1-c1ccccc1[N+](=O)[O-] [AP1189, (E)-N-trans-{3-[1-(2-nitrophenyl)-1H-pyrrol-2-yl]-allylidene}-aminoguanidium acetate]
cytokine release (macrophages): reduce cytokine release | CDAI group mean, Baseline [1, 6]: 36.1 | CDAI group mean, Screening [1, 6]: 35.6 | CDAI group mean, Week 4 [1, 6]: 24.2 | CDAI group mean, Week 2 [1, 6]: 29.9 | CDAI group mean, Week 5 [1, 6]: 22.9 | CDAI Difference [1, 6]: −11.9 | CDAI Difference in % [1, 6]: 33% | CDAI group mean, Baseline [1, 7]: 39 | CDAI group mean, Screening [1, 7]: 38.9 | CDAI group mean, Week 4 [1, 7]: 23.9 | CDAI group mean, Week 2 [1, 7]: 28.9 | CDAI group mean, Week 5 [1, 7]: 21.3 | CDAI Difference [1, 7]: −15.1 | CDAI Difference in % [1, 7]: 39% | effect in reducing CDAI ([1]; both tested dosages, 50 mg and 100 mg): significant effect | macroscopic and histological parameters of joint disruption [2]: significant reduction | melanogenesis (melanocytes): no melanogenesis was induced | C Trough (Mean +/− SD, N = 9) [3]: 186 ± 45 ng/mL | ERK1/2 phosphorylation (MC3R; MC3R): cause ERK1/2 phosphorylation | canonical cAMP generation (MC3R; MC3R): does not induce canonical CAMP generation | agonist character at MC3R (MC3R): biased agonist | anti-inflammatory action in peritonitis (peritonitis): elicits anti-inflammatory actions | DAP Average/Median ([4]; 50 mg AP1189, 4 Weeks, n 33): 79.9 mmHg | SAP Average/Median ([4]; 50 mg AP1189, 4 Weeks, n 33): 129.1 mmHg | MAP Average/Median ([4]; 50 mg AP1189, 4 Weeks, n 33): 96.3 mmHg | CNA (clinically notable vital sign abnormalities) ([4]; 50 mg AP1189, 4 Weeks, n 33): 2 (6%) | DAP Average/Median ([4]; 50 mg AP1189, Base Line, n 33): 80.0 mmHg | SAP Average/Median ([4]; 50 mg AP1189, Base Line, n 33): 131.3 mmHg | MAP Average/Median ([4]; 50 mg AP1189, Base Line, n 33): 97.1 mmHg | CNA (clinically notable vital sign abnormalities) ([4]; 50 mg AP1189, Base Line, n 33): 4 (11%) | decrease in DAP after 4 weeks treatment ([4]; 50 mg AP1189 group): 0.1 mmHg | decrease in MAP after 4 weeks treatment ([4]; 50 mg AP1189 group): 0.8 mmHg | decrease in SAP after 4 weeks treatment ([4]; 50 mg AP1189 group): 2.2 mmHg | DAP Average/Median ([4]; 100 mg AP1189, 4 Weeks, n 34): 80.3 mmHg | SAP Average/Median ([4]; 100 mg AP1189, 4 Weeks, n 34): 126.8 mmHg | MAP Average/Median ([4]; 100 mg AP1189, 4 Weeks, n 34): 95.8 mmHg | CNA (clinically notable vital sign abnormalities) ([4]; 100 mg AP1189, 4 Weeks, n 34): 1 (3%) | DAP Average/Median ([4]; 100 mg AP1189, Base Line, n 34): 81.1 mmHg | SAP Average/Median ([4]; 100 mg AP1189, Base Line, n 34): 129.9 mmHg | MAP Average/Median ([4]; 100 mg AP1189, Base Line, n 34): 97.4 mmHg | CNA (clinically notable vital sign abnormalities) ([4]; 100 mg AP1189, Base Line, n 34): 4 (11%) | decrease in DAP after 4 weeks treatment ([4]; 100 mg AP1189 group): 0.8 mmHg | decrease in MAP after 4 weeks treatment ([4]; 100 mg AP1189 group): 1.6 mmHg | decrease in SAP after 4 weeks treatment ([4]; 100 mg AP1189 group): 3.1 mmHg | number of observed abnormalities in blood pressure ([4]; both treatment groups (50 mg and 100 mg), 4 weeks, no change in placebo group): reduced | reduction of neutrophil accumulation compared to pretreatment with vehicle [5]: 70% | reduction of IL-1β levels compared to pretreatment with vehicle ([5]; p<0.05 vs vehicle): 37% | reduction of IL-6 levels compared to pretreatment with vehicle ([5]; p<0.05 vs vehicle): 59% | ERK1/2 phosphorylation (MC1R; MC1R): cause ERK1/2 phosphorylation | canonical cAMP generation (MC1R; MC1R): does not induce canonical CAMP generation | agonist character at MC1R (MC1R): biased agonist
